Measurements as given in patent US12679839B2, “Cyclin-dependent kinase 7 (CDK7) non-covalent inhibitors” (JANSSEN PHARMACEUTICA NV, priority 2020, dated 2026).

target: T1, CDK7/Cyclin H/MAT-1 complex (Homo sapiens, UniProt P50613); test: Absorbance kinetic assay (20 nM CDK7/Cyclin H/MAT-1 complex); format: biochemical; conditions: not given
T1 construct: Human CDK7 (amino acids 1-346); His6 (N); TEV protease cleavage site (N); made in house; host or cells: baculovirus-SF9 insect cells
Method in brief: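 Trimeric complex (His6-TEV CDK7 1-346, MAT1 1-309, cyclin H 1-323) from Sf9 cells, at 20 nM, phosphorylating RNA Pol II-derived CDK7/9-tide; ADP coupled via PK/LDH to NADH depletion read at 340 nm every 2 min for 8 h. Steady-state slopes gave % inhibition; IC50 from 11-point Hill fit.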

T1 sequence (P50613 whole entry, the tested form may be a part): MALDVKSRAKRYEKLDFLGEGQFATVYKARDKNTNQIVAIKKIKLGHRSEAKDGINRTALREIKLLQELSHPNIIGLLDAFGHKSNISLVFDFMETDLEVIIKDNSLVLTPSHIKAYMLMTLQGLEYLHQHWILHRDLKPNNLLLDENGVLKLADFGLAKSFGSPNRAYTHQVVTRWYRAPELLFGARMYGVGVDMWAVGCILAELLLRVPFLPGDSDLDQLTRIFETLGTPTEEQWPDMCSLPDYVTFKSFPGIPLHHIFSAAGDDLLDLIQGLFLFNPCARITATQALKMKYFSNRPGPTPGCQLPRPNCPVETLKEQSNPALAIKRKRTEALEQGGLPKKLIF
T1 sequence (P51946 whole entry partner, the tested form may be a part): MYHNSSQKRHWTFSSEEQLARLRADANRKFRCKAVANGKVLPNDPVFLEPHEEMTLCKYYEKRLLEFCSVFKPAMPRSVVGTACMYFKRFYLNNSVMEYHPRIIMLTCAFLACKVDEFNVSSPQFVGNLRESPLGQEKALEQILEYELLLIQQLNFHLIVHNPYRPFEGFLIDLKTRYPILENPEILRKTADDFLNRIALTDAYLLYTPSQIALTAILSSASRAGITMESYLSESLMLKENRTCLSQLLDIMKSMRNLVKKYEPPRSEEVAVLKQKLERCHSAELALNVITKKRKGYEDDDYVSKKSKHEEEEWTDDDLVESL
T1 sequence (P51948 whole entry partner, the tested form may be a part): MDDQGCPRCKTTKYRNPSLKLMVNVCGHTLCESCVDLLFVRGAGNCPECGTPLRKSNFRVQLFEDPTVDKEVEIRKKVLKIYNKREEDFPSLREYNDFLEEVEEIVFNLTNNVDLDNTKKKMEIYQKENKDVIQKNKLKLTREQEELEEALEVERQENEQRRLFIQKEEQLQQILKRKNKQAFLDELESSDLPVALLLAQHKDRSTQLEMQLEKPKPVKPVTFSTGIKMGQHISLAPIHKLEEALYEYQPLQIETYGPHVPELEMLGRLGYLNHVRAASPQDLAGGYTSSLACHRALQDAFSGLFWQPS

SMILES | CDK7 (20 nM) pIC50
C[C@@H]1Cc2cnc(NC3CCOCC3)nc2CN1C(=O)[C@@H]1CC[C@@H](N(C)C)CN1c1ccccc1 (mixture of isomers) [Compound 167] | 6.25
C[C@@H]1Cc2cnc(NCc3ccccc3)nc2CN1C(=O)[C@H]1CCN(CC2COC2)C[C@@H]1c1ccccc1 (single isomer, unassigned) [Compound 155] | >8.01
CC(C)N1CC[C@H](C(=O)N2Cc3nc(NC4CCOCC4)ncc3C[C@H]2C)[C@@H](c2cccc(Cl)c2)C1 (single isomer, unassigned) [Compound 160] | 6.96
C[C@H]1Cc2cnc(NC3(c4ccccc4)COC3)cc2CN1C(=O)[C@H]1CCN(C)C[C@@H]1c1ccccc1 (single isomer, unassigned) [Compound 175] | 7.52
CN1CC[C@H](C(=O)N2Cc3nc(NCc4ccn(C)n4)ncc3CC2(C)C)[C@@H](c2ccccc2)C1 (single isomer, unassigned) [Compound 191] | 6.53
C[C@@H]1Cc2cnc(NCc3ccn(C)n3)nc2CN1C(=O)[C@H]1CCN(C)C[C@@H]1c1ccccc1 [Compound 1] | 8.01
C[C@@H]1Cc2cnc(NC3CCC(OCC4CC4)CC3)nc2CN1C(=O)[C@H]1CCN(C)C[C@@H]1c1ccccc1 (stereo partly drawn) [Compound 3] | >8.01
CO[C@]1(C)CC[C@@H](Nc2ncc3c(n2)CN(C(=O)[C@H]2CCN(C)C[C@@H]2c2ccccc2)[C@H](C)C3)CC1 [Compound 10] | >8.01
C[C@@H]1Cc2cnc(N[C@H]3CC[C@H](O)CC3)nc2CN1C(=O)[C@H]1CCN(C)C[C@@H]1c1ccccc1 [Compound 12] | >8.01
C[C@@H]1Cc2cnc(N[C@H]3CC[C@H](C)CC3)nc2CN1C(=O)[C@H]1CCN(C)C[C@@H]1c1ccccc1 [Compound 13] | 8.01
C[C@H](Nc1ncc2c(n1)CN(C(=O)[C@H]1CCN(C)C[C@@H]1c1ccccc1)[C@H](C)C2)c1ccccn1 [Compound 20] | 8.01
C[C@@H]1Cc2cnc(N[C@H](C)c3ccccc3)nc2CN1C(=O)[C@H]1CCN(C)C[C@@H]1c1ccccc1 [Compound 22] | 8.01
C[C@@H]1Cc2cnc(NC3Cc4ccccc4C3)nc2CN1C(=O)[C@H]1CCN(C)C[C@@H]1c1ccccc1 [Compound 29] | 8.01
CO[C@H]1CC[C@H](Nc2ncc3c(n2)CN(C(=O)[C@H]2CCN(C)C[C@@H]2c2ccccc2)[C@H](C)C3)CC1 [Compound 37] | 8.01
C[C@@H]1Cc2cnc(NCc3ccccc3)nc2CN1C(=O)[C@H]1CCN(C)C[C@@H]1c1ccccc1 [Compound 43] | 8.01
C[C@@H]1Cc2cnc(NC3CCS(=O)(=O)CC3)nc2CN1C(=O)[C@H]1CCN(C)C[C@@H]1c1ccccc1 [Compound 44] | >7.7
C[C@@H]1Cc2cnc(NC3CCN(CC(F)(F)F)CC3)nc2CN1C(=O)[C@H]1CCN(C)C[C@@H]1c1ccccc1 [Compound 45] | 7.62
C[C@@H]1Cc2cnc(NCc3ccsc3)nc2CN1C(=O)[C@H]1CCN(C)C[C@@H]1c1ccccc1 [Compound 48] | 7.59
C[C@@H]1Cc2cnc(NCC3CCS(=O)(=O)C3)nc2CN1C(=O)[C@H]1CCN(C)C[C@@H]1c1ccccc1 (stereo partly drawn) [Compound 49] | 6.62

SMILES | CDK7 (20 nM) pIC50
Cc1ccc(CNc2ncc3c(n2)CN(C(=O)[C@H]2CCN(C)C[C@@H]2c2ccccc2)[C@H](C)C3)o1 [Compound 50] | 7.6
Cc1ncc(CNc2ncc3c(n2)CN(C(=O)[C@H]2CCN(C)C[C@@H]2c2ccccc2)[C@H](C)C3)[nH]1 [Compound 52] | 7.97
C[C@@H]1Cc2cnc(NC[C@H]3CCOC3)nc2CN1C(=O)[C@H]1CCN(C)C[C@@H]1c1ccccc1 [Compound 53] | 7.39
C[C@@H]1Cc2cnc(NCc3cc(C(F)F)n(C)n3)nc2CN1C(=O)[C@H]1CCN(C)C[C@@H]1c1ccccc1 [Compound 56] | 6.85
C[C@@H]1Cc2cnc(NCc3cnn(C)c3)nc2CN1C(=O)[C@H]1CCN(C)C[C@@H]1c1ccccc1 [Compound 57] | 6.66
CCn1ccc(CNc2ncc3c(n2)CN(C(=O)[C@H]2CCN(C)C[C@@H]2c2ccccc2)[C@H](C)C3)n1 [Compound 58] | >8.01
C[C@@H]1Cc2cnc(N[C@H]3CCC[C@H](O)C3)nc2CN1C(=O)[C@H]1CCN(C)C[C@@H]1c1ccccc1 [Compound 59] | >8.01
Cc1cn(C)nc1CNc1ncc2c(n1)CN(C(=O)[C@H]1CCN(C)C[C@@H]1c1ccccc1)[C@H](C)C2 [Compound 61] | >8.01
C[C@@H]1Cc2cnc(NC[C@@H]3CCOC3)nc2CN1C(=O)[C@H]1CCN(C)C[C@@H]1c1ccccc1 [Compound 62] | >8.01
Cc1cc(CNc2ncc3c(n2)CN(C(=O)[C@H]2CCN(C)C[C@@H]2c2ccccc2)[C@H](C)C3)nn1C [Compound 65] | 7.58
CC(C)n1ccc(CNc2ncc3c(n2)CN(C(=O)[C@H]2CCN(C)C[C@@H]2c2ccccc2)[C@H](C)C3)n1 [Compound 66] | >8.01
C[C@@H]1Cc2cnc(NC3CCC(OC(F)F)CC3)nc2CN1C(=O)[C@H]1CCN(C)C[C@@H]1c1ccccc1 (stereo partly drawn) [Compound 69] | >8.01
C[C@@H]1Cc2cnc(N[C@@H](CO)c3ccccc3)nc2CN1C(=O)[C@H]1CCN(C)C[C@@H]1c1ccccc1 [Compound 71] | >8.01
C[C@@H]1Cc2cnc(N[C@H](CO)c3ccccc3)nc2CN1C(=O)[C@H]1CCN(C)C[C@@H]1c1ccccc1 [Compound 72] | 8.01
C[C@@H]1Cc2cnc(Nc3cnn(CC(C)(C)O)c3)nc2CN1C(=O)[C@H]1CCN(C)C[C@@H]1c1ccccc1 [Compound 74] | 7.72
C[C@@H]1Cc2cnc(Nc3ccnc(C(F)F)c3)nc2CN1C(=O)[C@H]1CCN(C)C[C@@H]1c1ccccc1 [Compound 75] | 7.46
C[C@@H]1Cc2cnc(Nc3cnn4c3CCCC4)nc2CN1C(=O)[C@H]1CCN(C)C[C@@H]1c1ccccc1 [Compound 77] | 7.53
Cc1cc(Nc2ncc3c(n2)CN(C(=O)[C@H]2CCN(C)C[C@@H]2c2ccccc2)[C@H](C)C3)ccn1 [Compound 78] | 7.93

same assay, conditions: read-out: CDK7 (20 nM) pIC50 (converted)

SMILES | IC50 [nM]
C[C@@H]1Cc2cnc(N[C@H]3CCC(=O)N(C)C3)nc2CN1C(=O)[C@H]1CCN(C)C[C@@H]1c1ccccc1 (relative stereo) [Compound 7] | < 9.77
C[C@@H]1Cc2cnc(N[C@@H]3CCOC4(CCC4)C3)nc2CN1C(=O)[C@H]1CCN(C)C[C@@H]1c1ccccc1 (relative stereo) [Compound 8] | < 9.77
C[C@@H]1Cc2cnc(N[C@H]3CCOC4(CCC4)C3)nc2CN1C(=O)[C@H]1CCN(C)C[C@@H]1c1ccccc1 (relative stereo) [Compound 9] | < 9.77
C[C@@H]1Cc2cnc(N[C@@H]3CCOC(C)(C)C3)nc2CN1C(=O)[C@H]1CCN(C)C[C@@H]1c1ccccc1 (relative stereo) [Compound 40] | 11
Cc1ccc([C@@H]2CN(C)CC[C@H]2C(=O)N2Cc3nc(NC4CCOCC4)ncc3C[C@H]2C)cn1 (relative stereo) [Compound 108] | 105
CO[C@H]1CC[C@H](Nc2ncc3c(n2)CN(C(=O)[C@H]2CCN(C)C[C@@H]2c2ccc(C)nc2)[C@H](C)C3)CC1 (relative stereo) [Compound 110] | < 9.77
Cc1cccc([C@H]2CN(C)CC[C@@H]2C(=O)N2Cc3nc(Nc4cnn(C)c4)ncc3C[C@H]2C)c1 (relative stereo) [Compound 126] | 15.5
C[C@@H]1Cc2cnc(NCc3ccn(C)n3)nc2CN1C(=O)[C@@H]1CCN(C)C[C@H]1c1cccc(OC(F)(F)F)c1 (relative stereo) [Compound 127] | 234
C[C@@H]1Cc2cnc(NCc3ccn(C)n3)nc2CN1C(=O)[C@H]1CCN(C)C[C@@H]1c1cccc(OC(F)(F)F)c1 (relative stereo) [Compound 128] | 18.6
C[C@H]1Cc2cnc(NCc3ccn(C)n3)cc2CN1C(=O)[C@H]1CCN(C)C[C@@H]1c1ccccc1 (relative stereo) [Compound 174] | 11.2
C[C@H]1Cc2cnc(Nc3cnn(C)c3)cc2CN1C(=O)[C@H]1CCN(C)C[C@@H]1c1ccccc1 (relative stereo) [Compound 176] | 22.9
Cc1cccc([C@H]2CN(C)CC[C@@H]2C(=O)N2Cc3nc(Nc4cnn(C)c4)ncc3[C@@H]3C[C@@H]32)c1 (relative stereo) [Compound 203] | 17
C[C@H]1Cc2cnc(NC3CCOCC3)nc2CN1C(=O)N1CCN(C)C[C@H]1c1cccc(F)c1 (relative stereo) [Compound 212] | 13.2
C[C@@H]1Cc2cnc(N[C@H](C)c3ccn(C)n3)nc2CN1C(=O)[C@H]1CCN(C)C[C@@H]1c1ccccc1 (single isomer, unassigned) [Compound 54] | 12.3
C[C@H](Nc1ncc2c(n1)CN(C(=O)[C@H]1CCN(C)C[C@@H]1c1ccccc1)[C@H](C)C2)c1ccn(C)n1 (single isomer, unassigned) [Compound 55] | 141
C[C@H]1Cc2cnc(NC3CCOCC3)cc2CN1C(=O)[C@H]1CCN(C)C[C@@H]1c1ccccc1 (single isomer, unassigned) [Compound 171a] | 9.77
C[C@@H]1Cc2cnc(NCc3cc[nH]n3)nc2CN1C(=O)[C@H]1CCN(C)C[C@@H]1c1ccccc1 [Compound 51] | 51.3
C[C@@H]1Cc2cnc(NCc3ccn(C)c3)nc2CN1C(=O)[C@H]1CCN(C)C[C@@H]1c1ccccc1 [Compound 60] | < 9.77
C[C@@H]1Cc2cnc(NC[C@@H]3CCCO3)nc2CN1C(=O)[C@H]1CCN(C)C[C@@H]1c1ccccc1 [Compound 67] | < 9.77
[2H]C([2H])(Nc1ncc2c(n1)CN(C(=O)[C@H]1CCN(C)C[C@@H]1c1ccccc1)[C@H](C)C2)c1ccccc1 [Compound 70] | < 9.77
